Laboratory results as given in ChEMBL document CHEMBL2203177, “Tuning the activity of a short arg-trp antimicrobial Peptide by lipidation of a C- or N-terminal lysine side-chain” (ACS Med Chem Lett, 2012).
In brackets after ≈: the same amount, converted by molar mass. Peptide text beside a SMILES is read from it. * marks the point of attachment. Myristoyl = CCCCCCCCCCCCCC(=O)*; Lauroyl = CCCCCCCCCCCC(=O)*; Decanoyl = CCCCCCCCCC(=O)*; Octanoyl = CCCCCCCC(=O)*; Hexanoyl = CCCCCC(=O)*; Butyryl = CCCC(=O)*

Experiments:
Pseudomonas aeruginosa = assay: Antibacterial activity against Pseudomonas aeruginosa DSM 50071 assessed as growth inhibition after 18 hrs; type: functional; settings: DSM 50071, 18 h
[1] = Hemolytic activity against human RBC assessed as hemoglobin leakage at 250 ug/ml; type: ADME, cell-based, Erythrocyte; settings: human red blood cells, read-out: Activity
Staphylococcus aureus [2] = assay: Antibacterial activity against Staphylococcus aureus ATCC 43300 assessed as growth inhibition after 18 hrs; type: functional; settings: ATCC 43300, 18 h
Escherichia coli = assay: Antibacterial activity against Escherichia coli DSM 30083 assessed as growth inhibition after 18 hrs; type: functional; settings: DSM 30083, 18 h
Staphylococcus aureus [3] = assay: Antibacterial activity against Staphylococcus aureus DSM 20231 assessed as growth inhibition after 18 hrs; type: functional; settings: DSM 20231, 18 h
Bacillus subtilis [4] = assay: Antibacterial activity against Bacillus subtilis 168 DSM 402 assessed as growth inhibition after 18 hrs; type: functional; settings: subsp. subtilis str. 168 DSM 402, 18 h
Acinetobacter baumannii = assay: Antibacterial activity against Acinetobacter baumannii DSM 30007 assessed as growth inhibition after 18 hrs; type: functional; settings: DSM 30007, 18 h
Bacillus subtilis [5] = assay: Bactericidal activity against Bacillus subtilis 168 (trpC2)2 assessed as survival rate at twice MIC concentration incubated for 15 mins measured after 18 hrs; type: functional, subsp. subtilis str. 168 (trpC2)2
[6] = Cytotoxicity against human GM5657 cells assessed as inhibition of cell viability after 48 hrs by crystal violet assay; type: cell-based; settings: GM5657, 48 h
HT-29 = assay: Cytotoxicity against human HT-29 cells assessed as inhibition of cell viability after 48 hrs by crystal violet assay; type: functional, cell-based; settings: HT-29, 48 h
MCF7 [7] = assay: Selectivity index, ratio of IC50 for human GM5657 cells to IC50 for human MCF7 cells; type: functional
[8] = Hemolytic activity against human RBC assessed as hemoglobin leakage at 500 ug/ml after 5 mins; type: ADME, cell-based, Erythrocyte; settings: human red blood cells, read-out: Activity
[9] = Ratio of IC50 for human GM5657 cells to MIC for Staphylococcus aureus DSM 20231; type: functional
[10] = Selectivity index, ratio of IC50 for human GM5657 cells to IC50 for human HT29 cells; type: functional
[11] = Hemolytic activity against human RBC assessed as hemoglobin leakage; type: ADME, cell-based, Erythrocyte; settings: human red blood cells
MCF7 [12] = assay: Cytotoxicity against human MCF7 cells assessed as inhibition of cell viability after 48 hrs by crystal violet assay; type: functional, cell-based; settings: MCF7, 48 h

CC(=O)NCCCC[C@H](N)C(=O)N[C@@H](CCCNC(=N)N)C(=O)N[C@@H](Cc1c[nH]c2ccccc12)C(=O)N[C@@H](CCCNC(=N)N)C(=O)N[C@@H](Cc1c[nH]c2ccccc12)C(=O)N[C@@H](CCCNC(=N)N)C(=O)N[C@@H](Cc1c[nH]c2ccccc12)C(N)=O (H-K(Ac)RWRWRW-NH2)
MIC (Pseudomonas aeruginosa): > 100 µM | hemolysis at 250 ug/ml [1]: < 10% | MIC (Staphylococcus aureus [2]): > 100 µM | MIC (Escherichia coli): > 100 µM | MIC (Staphylococcus aureus [3]): > 100 µM | MIC (Bacillus subtilis [4]): 10 µM (≈ 12.1 µg/mL) | MIC (Acinetobacter baumannii): > 100 µM

CCCC(=O)NCCCC[C@H](N)C(=O)N[C@@H](CCCNC(=N)N)C(=O)N[C@@H](Cc1c[nH]c2ccccc12)C(=O)N[C@@H](CCCNC(=N)N)C(=O)N[C@@H](Cc1c[nH]c2ccccc12)C(=O)N[C@@H](CCCNC(=N)N)C(=O)N[C@@H](Cc1c[nH]c2ccccc12)C(N)=O (H-K(Butyryl)RWRWRW-NH2)
MIC (Pseudomonas aeruginosa): > 100 µM | hemolysis at 250 ug/ml [1]: < 10% | MIC (Staphylococcus aureus [2]): 19 µM (≈ 23.6 µg/mL) | MIC (Escherichia coli): 38 µM (≈ 47.2 µg/mL) | MIC (Staphylococcus aureus [3]): 38 µM (≈ 47.2 µg/mL) | MIC (Bacillus subtilis [4]): 2 µM (≈ 2.49 µg/mL) | MIC (Acinetobacter baumannii): > 100 µM

CCCCCCCCCC(=O)NCCCC[C@H](N)C(=O)N[C@@H](CCCNC(=N)N)C(=O)N[C@@H](Cc1c[nH]c2ccccc12)C(=O)N[C@@H](CCCNC(=N)N)C(=O)N[C@@H](Cc1c[nH]c2ccccc12)C(=O)N[C@@H](CCCNC(=N)N)C(=O)N[C@@H](Cc1c[nH]c2ccccc12)C(N)=O (H-K(Decanoyl)RWRWRW-NH2)
MIC (Pseudomonas aeruginosa): 9 µM (≈ 11.9 µg/mL) | Survival (Bacillus subtilis [5]): 0.016% | hemolysis at 250 ug/ml [1]: > 50% | MIC (Staphylococcus aureus [2]): 1 µM (≈ 1.33 µg/mL) | MIC (Escherichia coli): 5 µM (≈ 6.63 µg/mL) | MIC (Staphylococcus aureus [3]): 2 µM (≈ 2.65 µg/mL) | MIC (Bacillus subtilis [4]): 2 µM (≈ 2.65 µg/mL) | MIC (Acinetobacter baumannii): 9 µM (≈ 11.9 µg/mL)

CCCCCC(=O)NCCCC[C@H](N)C(=O)N[C@@H](CCCNC(=N)N)C(=O)N[C@@H](Cc1c[nH]c2ccccc12)C(=O)N[C@@H](CCCNC(=N)N)C(=O)N[C@@H](Cc1c[nH]c2ccccc12)C(=O)N[C@@H](CCCNC(=N)N)C(=O)N[C@@H](Cc1c[nH]c2ccccc12)C(N)=O (H-K(Hexanoyl)RWRWRW-NH2)
MIC (Pseudomonas aeruginosa): 37 µM (≈ 47 µg/mL) | Survival (Bacillus subtilis [5]): 0.211% | hemolysis at 250 ug/ml [1]: < 10% | MIC (Staphylococcus aureus [2]): 5 µM (≈ 6.35 µg/mL) | MIC (Escherichia coli): 9 µM (≈ 11.4 µg/mL) | MIC (Staphylococcus aureus [3]): 5 µM (≈ 6.35 µg/mL) | MIC (Bacillus subtilis [4]): 0.6 µM (≈ 0.762 µg/mL) | MIC (Acinetobacter baumannii): 9 µM (≈ 11.4 µg/mL)

CCCCCCCCCCCC(=O)NCCCC[C@H](N)C(=O)N[C@@H](CCCNC(=N)N)C(=O)N[C@@H](Cc1c[nH]c2ccccc12)C(=O)N[C@@H](CCCNC(=N)N)C(=O)N[C@@H](Cc1c[nH]c2ccccc12)C(=O)N[C@@H](CCCNC(=N)N)C(=O)N[C@@H](Cc1c[nH]c2ccccc12)C(N)=O (H-K(Lauroyl)RWRWRW-NH2)
MIC (Pseudomonas aeruginosa): > 100 µM | Survival (Bacillus subtilis [5]): 0.011% | hemolysis at 250 ug/ml [1]: > 50% | MIC (Staphylococcus aureus [2]): 2 µM (≈ 2.71 µg/mL) | MIC (Escherichia coli): 9 µM (≈ 12.2 µg/mL) | MIC (Staphylococcus aureus [3]): 4 µM (≈ 5.42 µg/mL) | MIC (Bacillus subtilis [4]): 9 µM (≈ 12.2 µg/mL) | MIC (Acinetobacter baumannii): 18 µM (≈ 24.4 µg/mL)

CCCCCCCCCCCCCC(=O)NCCCC[C@H](N)C(=O)N[C@@H](CCCNC(=N)N)C(=O)N[C@@H](Cc1c[nH]c2ccccc12)C(=O)N[C@@H](CCCNC(=N)N)C(=O)N[C@@H](Cc1c[nH]c2ccccc12)C(=O)N[C@@H](CCCNC(=N)N)C(=O)N[C@@H](Cc1c[nH]c2ccccc12)C(N)=O (H-K(Myristoyl)RWRWRW-NH2)
MIC (Pseudomonas aeruginosa): > 100 µM | Survival (Bacillus subtilis [5]): 0.033% | hemolysis at 250 ug/ml [1]: > 50% | MIC (Staphylococcus aureus [2]): 17 µM (≈ 23.5 µg/mL) | MIC (Escherichia coli): 35 µM (≈ 48.4 µg/mL) | MIC (Staphylococcus aureus [3]): 9 µM (≈ 12.4 µg/mL) | MIC (Bacillus subtilis [4]): 9 µM (≈ 12.4 µg/mL) | MIC (Acinetobacter baumannii): 35 µM (≈ 48.4 µg/mL)

CCCCCCCC(=O)NCCCC[C@H](N)C(=O)N[C@@H](CCCNC(=N)N)C(=O)N[C@@H](Cc1c[nH]c2ccccc12)C(=O)N[C@@H](CCCNC(=N)N)C(=O)N[C@@H](Cc1c[nH]c2ccccc12)C(=O)N[C@@H](CCCNC(=N)N)C(=O)N[C@@H](Cc1c[nH]c2ccccc12)C(N)=O (H-K(Octanoyl)RWRWRW-NH2)
IC50 [6]: 32.5 µM | IC50 (HT-29): 4.3 µM | Ratio IC50 (MCF7 [7]): 7 | MIC (Pseudomonas aeruginosa): 9 µM (≈ 11.7 µg/mL) | Survival (Bacillus subtilis [5]): 0.006% | hemolysis at 5 min, 500 ug/ml [8]: 88% | Ratio IC50 [9]: 15 | hemolysis at 250 ug/ml [1]: > 50% | MIC (Staphylococcus aureus [2]): 1 µM (≈ 1.3 µg/mL) | Ratio IC50 [10]: 7 | MIC (Escherichia coli): 5 µM (≈ 6.49 µg/mL) | MIC (Staphylococcus aureus [3]): 2 µM (≈ 2.6 µg/mL) | HC50 [11]: 114 µM | IC50 (MCF7 [12]): 4.6 µM | MIC (Bacillus subtilis [4]): 0.6 µM (≈ 0.779 µg/mL) | MIC (Acinetobacter baumannii): 9 µM (≈ 11.7 µg/mL)

N=C(N)NCCC[C@H](NC(=O)[C@H](Cc1c[nH]c2ccccc12)NC(=O)[C@H](CCCNC(=N)N)NC(=O)[C@H](Cc1c[nH]c2ccccc12)NC(=O)[C@H](CCCNC(=N)N)NC(=O)[C@@H](N)CCCCN)C(=O)N[C@@H](Cc1c[nH]c2ccccc12)C(N)=O (H-KRWRWRW-NH2)
MIC (Pseudomonas aeruginosa): > 100 µM | Survival (Bacillus subtilis [5]): 7% | hemolysis at 250 ug/ml [1]: < 10% | MIC (Staphylococcus aureus [2]): 9 µM (≈ 10.6 µg/mL) | MIC (Escherichia coli): 18 µM (≈ 21.1 µg/mL) | MIC (Staphylococcus aureus [3]): 37 µM (≈ 43.4 µg/mL) | MIC (Bacillus subtilis [4]): 2 µM (≈ 2.34 µg/mL) | MIC (Acinetobacter baumannii): > 100 µM
